The source made the active and inactive calls. The calls are words filed in the database; no cut-off is given here.
Test system: Mus musculus
Experiment: Antifibrotic activity in C57BL/6 mouse model of bleomycin-induced idiopathic pulmonary fibrosis assessed as survival rate at 30-60 mg/kg, po dosed for 31 consecutive days followed by tracheal administration of bleomycin relative to control
Type: functional
Settings: C57BL/6, po, 744 h, time 31 day

Compound `CCc1nc2c(C)cc(-c3ccc(CN4CCC(O)CC4)cc3)cn2c1NC(=O)NCc1ccc(F)cc1` has a survival at 60 mg/kg of 100%.

Test system: Mus musculus
Experiment: Antifibrotic activity in C57BL/6 mouse model of bleomycin-induced idiopathic pulmonary fibrosis assessed as inhibition of collagen deposition at 30-60 mg/kg, po dosed for 31 consecutive days followed by tracheal administration of bleomycin by masson's staining based histopathological analysis
Type: functional, organism-based
Settings: time 31.0 day

In the case of `CCc1nc2c(C)cc(-c3ccc(CN4CCC(O)CC4)cc3)cn2c1NC(=O)NCc1ccc(F)cc1`, the inhibition is reported as “Active”.
With `CCc1nc2c(C)cc(N3CCN(CC(=O)N4CC(O)C4)CC3)cn2c1N(C)c1nc(-c2ccc(F)cc2)c(C#N)s1` the inhibition was “Active”.

Test system: Mus musculus
Experiment: Antifibrotic activity in C57BL/6J mouse model of bleomycin-induced idiopathic pulmonary fibrosis assessed as inhibition of changes in lung textures at 30-60 mg/kg, po dosed for 31 consecutive days followed by tracheal administration of bleomycin by masson's staining based histopathological analysis
Type: functional, organism-based
Settings: time 31.0 day

In the case of `CCc1nc2c(C)cc(-c3ccc(CN4CCC(O)CC4)cc3)cn2c1NC(=O)NCc1ccc(F)cc1`, the inhibition is reported as “Active”.
With `CCc1nc2c(C)cc(N3CCN(CC(=O)N4CC(O)C4)CC3)cn2c1N(C)c1nc(-c2ccc(F)cc2)c(C#N)s1` the inhibition was “Active”.

Target: Autotaxin (Homo sapiens, UniProt Q13822)
Experiment: Inhibition of human ATX using FS-3 as substrate preincubated for 45 mins followed by substrate addition and measured every 1 min for 30 mins by fluorescence microplate reader assay
Settings: not given

First: CCc1nc2c(C)cc(-c3ccc(CN4CCOCC4)cc3)cn2c1NC(=O)NCc1ccc(OC)c(Cl)c1
Second: CCc1nc2c(C)cc(-c3ccc(CN4CCSCC4)cc3)cn2c1NC(=O)NCc1ccc(OC)c(Cl)c1
The IC50 of the first is lower: 71.7 nM for the first, greater than 1000 nM for the second. The first is the more potent here.

Compared with `CCc1nc2c(C)cc(-c3ccc(CN4CCN(CC)CC4)cc3)cn2c1NC(=O)NCc1ccc(Cl)cc1`, `CCc1nc2c(C)cc(-c3ccc(CN4CCCC4)cc3)cn2c1NC(=O)NCc1ccc(Cl)cc1` is 1.6-fold higher in IC50: 688 nM for the first, 1070 nM for the second.

First: CCc1nc2c(C)cc(-c3ccc(CN4CCC(O)CC4)cc3)cn2c1NC(=O)NCc1ccc(F)cc1
Second: CCc1nc2c(C)cc(-c3ccc(CN4CCC(O)CC4)cc3)cn2c1NC(=O)NCc1ccc(Cl)cc1
The IC50 of the first is 140-fold lower: 1.72 nM for the first, 237 nM for the second.

Compared with `COc1ccc(CNC(=O)Nc2c(C)nc3c(C)cc(-c4ccc(CN5CCN(CCO)CC5)cc4)cn23)cc1Cl`, `CCc1nc2c(C)cc(-c3ccc(CN4CCN(CCO)CC4)cc3)cn2c1NC(=O)NCc1ccc(OC)c(Cl)c1` is 15-fold lower in IC50: 79.1 nM for the first, 5.43 nM for the second.

First: CCc1nc2c(C)cc(-c3ccc(C(=O)N4CCC(O)CC4)cc3)cn2c1NC(=O)NCc1ccc(F)cc1
Second: CCc1nc2c(C)cc(-c3ccc(C(=O)N4CCCCC4)cc3)cn2c1NC(=O)NCc1ccc(F)cc1
The IC50 of the first is 68-fold lower: 9.17 nM for the first, 626 nM for the second. The first is the more potent here.

Compared with `CCc1nc2c(C)cc(-c3ccc(CN4CCC[C@H]4CO)cc3)cn2c1NC(=O)NCc1ccc(OC)c(Cl)c1`, `CCc1nc2c(C)cc(-c3ccc(CN4CCC(O)CC4)cc3)cn2c1NC(=O)NCc1ccc(OC)c(Cl)c1` is 67-fold lower in IC50: 497 nM for the first, 7.41 nM for the second.

Going from `CCc1nc2c(C)cc(-c3ccc(C(=O)N4CCN(C)CC4)cc3)cn2c1NC(=O)NCc1ccc(OC)c(Cl)c1` to `CCc1nc2c(C)cc(-c3ccc(C(=O)N4CCC(O)CC4)cc3)cn2c1NC(=O)NCc1ccc(OC)c(Cl)c1`, the IC50 falls from 213 nM to 11.7 nM (18-fold). The second is the more potent here.

Going from `CCc1nc2c(C)cc(-c3ccc(CN4CCCCC4)cc3)cn2c1NC(=O)NCc1ccc(Cl)cc1` to `CCc1nc2c(C)cc(-c3ccc(CN4CCOCC4)cc3)cn2c1NC(=O)NCc1ccc(Cl)cc1`, the IC50 falls from 647 nM to 283 nM (2.3-fold).

Going from `CCc1nc2c(C)cc(-c3ccc(C(=O)N4CCN(CC)CC4)cc3)cn2c1NC(=O)NCc1ccc(F)cc1` to `CCc1nc2c(C)cc(-c3ccc(C(=O)N4CCN(C)CC4)cc3)cn2c1NC(=O)NCc1ccc(F)cc1`, the IC50 falls from greater than 1000 nM to 257 nM.

First: CCc1nc2c(C)cc(-c3ccc(CN4CCN(C)CC4)cc3)cn2c1NC(=O)NCc1ccc(F)cc1
Second: COc1ccc(CNC(=O)Nc2c(C)nc3c(C)cc(-c4ccc(CN5CCC(O)CC5)cc4)cn23)cc1Cl
The IC50 of the first is 41-fold higher: 451 nM for the first, 11 nM for the second.
